Where a name gives a salt, the structure may show the parent alone. Read-outs that look alike come from different tables or passages of the source.
Key:
[1] = molecular target: T1, DPP IV (Felis catus, UniProt Q9N2I7); assay: DPP IV activity in obese/non-obese cats, 7 days once daily dosing; type: in vivo, cat; conditions: 9 mg daily, percent of 0 h
T1 construct: Blood samples for the determination of this compound and DPP IV activity were collected; from tissue; host or cells: plasma of domestic short hair / purpose-bred cats dosed orally
From the text: The aim of this exploratory, randomized, placebo controlled crossover study was to investigate the effect of 1-[(3-cyano-pyridin-2-yl)methyl]-3-methyl-7-(2-butyn-1-yl)-8-[3-(R)-amino-piperidin-1-yl]-xanthine monohydrochloride on DPP IV activity and on glucose concentrations in obese and non-obese cats after repeated oral administration over seven days.
Fourteen clinically healthy male and female (8 obese and 6 non-obese) purpose-bred cats were used in this study. The animals were randomly allocated to two groups of cats, obese and non-obese, and treated in a cross-over design with 9 mg 1-[(3-cyano-pyridin-2-yl)methyl]-3-methyl-7-(2-butyn-1-yl)-8-[3-(R)-amino-piperidin-1-yl]-xanthine monohydrochloride or placebo, once daily for 7 days, with a following wash-out period of 21 days.
Cats were fed once daily 40 min after administration of the compound or the placebo, respectively.
In parallel, DPP IV activity was assessed as above.

[2] = system: diabetic db/db mice; assay: Delayed OGTT in diabetic db/db mice; type: in vivo, mouse; conditions: 1 mg/kg 16 hours before the test
Method: A delayed oral glucose tolerance test (OGTT) was applied to diabetic db/db mice and diabetic ZDF rats, as describes in the following.
Male obese diabetic db/db mice (C57BL/KSJ@Rj-db) were obtained from Janvier (France). Animals were fed ad libitum with a standard pelleted diet (Diet No. 3438 [containing 19% protein, 4.5% fat], Provimi Kliba, Switzerland) and had free access to water. Animals were housed in groups with a 12 h/12 h light/dark cycle (lights out between 6 p.m. and 6 a.m.). The mice used for these experiments were between 9 and 10 weeks of age.
The day before the OGTT, a blood sample from db/db mice or ZDF rats fasted for 2 hours was obtained by cutting the tip of the tail without anaesthesia and the animals were randomized for glucose (n=7 per group). The animals were fed again for 2 hours and then orally administered with either vehicle or 1-[(3-cyano-pyridin-2-yl)methyl]-3-methyl-7-(2-butyn-1-yl)-8-[3-(R)-amino-piperidin-1-yl]-xanthine monohydrochloride at doses between 0.3 and 3 mg/kg bw. A basal blood sample (pre-load) was obtained the next morning after overnight fasting for 16 hours by cutting the tip of the tail without anaesthesia. […] Additional blood samples were taken from the tip of the tail 30 min, 60 min, 90 min, 120 min, and 180 min after the glucose load, and blood glucose was measured. […]

[3] = molecular target: T2, plasma DPP IV (Rattus norvegicus, UniProt P14740); assay: Inhibition of plasma DPP IV activity in vitro, rat plasma; type: biochemical
T2 construct: from tissue
Method: Studies were also conducted to assess the inhibitory effect of this compound on plasma DPP IV activity in several species.

[4] = Multiple dose study (14 days) in cats: adverse events; type: in vivo, cat; conditions: 1, 3, 9 mg/animal once daily oral for 14 days
Method: The aim of this study was to investigate the PK/PD effects of 1-[(3-cyano-pyridin-2-yl)methyl]-3-methyl-7-(2-butyn-1-yl)-8-[3-(R)-amino-piperidin-1-yl]-xanthine in cats following repeated oral administration of 0, 1, 3 and 9 mg/animal over 14 days corresponding to a dose of 0, 0.25, 0.75 and 2.25 mg/kg body weight for a cat weighing 4 kg. (Dosages were based on the free base: 1 mg 1-[(3-cyano-pyridin-2-yl)methyl]-3-methyl-7-(2-butyn-1-yl)-8-[3-(R)-amino-piperidin-1-yl]-xanthine monohydrochloride corresponds to 0.923 mg 1-[(3-cyano-pyridin-2-yl)methyl]-3-methyl-7-(2-butyn-1-yl)-8-[3-(R)-amino-piperidin-1-yl]-xanthine free base).
For this purpose, twelve clinically healthy male adult domestic short hair cats with a body weight range of 3.5-4.8 kg were used. The animals were randomly allocated to 4 groups, 3 animals per group. All animals were treated once daily orally for 14 days (i.e. on days 0-13). The test article was administered via capsules at doses of 1 (group II), 3 (group III) or 9 (group IV) mg of the monohydrochloride compound per animal; group I received placebo serving as controls. Blood samples for PK and PD (DPP IV activity) investigations were drawn at 0 h (i.e. prior to the 1st treatment), 0.5, 1, 2, 4, 8, 12 and 24 h after the 1st treatment as well as 24 h after the 3rd, 5th, 7th, 9th, 11th and 13th treatment and 0.5, 1, 2, 4, 8, 12 and 24 h after the 14th treatment.

[5] = system: trypsin; assay: In vitro selectivity, human proteases: trypsin; type: biochemical; conditions: up to 100 μM
From the text: In order to determine the in vitro selectivity of 1-[(3-cyano-pyridin-2-yl)methyl]-3-methyl-7-(2-butyn-1-yl)-8-[3-(R)-amino-piperidin-1-yl]-xanthine, the ability of this compound to inhibit a number of human proteases was investigated as described in Thomas et al. (2008), J. Pharmacol. Exp. Ther., vol. 325, p. 175-182, chapter In vitro DPP-4 Inhibition Assay, p. 176.

T1 sequence (Q9N2I7 38-765 limits assumed): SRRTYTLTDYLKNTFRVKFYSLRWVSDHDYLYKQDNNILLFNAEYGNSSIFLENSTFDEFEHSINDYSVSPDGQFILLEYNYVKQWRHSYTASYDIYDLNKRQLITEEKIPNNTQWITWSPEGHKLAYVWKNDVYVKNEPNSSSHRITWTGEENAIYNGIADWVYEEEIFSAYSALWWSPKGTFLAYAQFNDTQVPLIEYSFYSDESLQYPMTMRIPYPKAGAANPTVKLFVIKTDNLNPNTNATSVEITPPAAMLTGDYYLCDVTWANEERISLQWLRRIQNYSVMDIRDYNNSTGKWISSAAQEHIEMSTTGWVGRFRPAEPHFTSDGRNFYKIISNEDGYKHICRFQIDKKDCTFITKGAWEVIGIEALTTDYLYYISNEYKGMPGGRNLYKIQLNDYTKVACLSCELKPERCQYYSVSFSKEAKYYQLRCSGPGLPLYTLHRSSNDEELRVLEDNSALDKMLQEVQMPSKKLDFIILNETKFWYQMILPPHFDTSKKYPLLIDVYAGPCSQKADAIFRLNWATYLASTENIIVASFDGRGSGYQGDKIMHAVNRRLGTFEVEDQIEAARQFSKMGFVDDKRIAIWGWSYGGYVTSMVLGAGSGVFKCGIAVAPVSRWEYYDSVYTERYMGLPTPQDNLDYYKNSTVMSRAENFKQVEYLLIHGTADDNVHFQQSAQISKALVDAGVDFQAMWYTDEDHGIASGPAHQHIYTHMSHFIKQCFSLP
T2 sequence (P14740 37-767 limits assumed): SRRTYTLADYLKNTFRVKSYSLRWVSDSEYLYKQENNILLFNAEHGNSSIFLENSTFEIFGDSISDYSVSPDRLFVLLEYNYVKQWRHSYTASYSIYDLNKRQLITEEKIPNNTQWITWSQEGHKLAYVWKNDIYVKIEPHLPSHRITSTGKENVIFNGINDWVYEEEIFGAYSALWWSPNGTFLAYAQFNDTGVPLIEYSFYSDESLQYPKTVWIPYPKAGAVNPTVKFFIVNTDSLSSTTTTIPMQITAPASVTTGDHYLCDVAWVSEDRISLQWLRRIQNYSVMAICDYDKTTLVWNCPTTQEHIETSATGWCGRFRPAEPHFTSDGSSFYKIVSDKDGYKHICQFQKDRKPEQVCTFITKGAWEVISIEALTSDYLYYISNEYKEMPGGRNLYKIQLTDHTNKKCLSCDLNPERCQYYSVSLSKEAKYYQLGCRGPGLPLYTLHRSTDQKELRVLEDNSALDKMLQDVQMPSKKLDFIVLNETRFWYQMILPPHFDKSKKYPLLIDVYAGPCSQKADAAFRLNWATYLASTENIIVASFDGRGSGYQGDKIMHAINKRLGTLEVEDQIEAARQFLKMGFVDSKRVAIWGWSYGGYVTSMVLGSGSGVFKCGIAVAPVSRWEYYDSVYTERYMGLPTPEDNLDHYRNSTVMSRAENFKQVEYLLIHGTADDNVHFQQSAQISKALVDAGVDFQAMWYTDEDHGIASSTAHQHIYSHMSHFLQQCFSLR

Compound `CC#CCn1c(N2CCC[C@@H](N)C2)nc2c1c(=O)n(Cc1ncccc1C#N)c(=O)n2C` [1-[(3-cyano-pyridin-2-yl)methyl]-3-methyl-7-(2-butyn-1-yl)-8-[3-(R)-amino-piperidin-1-yl]-xanthine monohydrochloride] has an activity at 9 mg ([1]; Non-obese cats (n = 6), 1 h, read-out: DPP-IV activity %, Max) of 25.4%, an activity at 9 mg ([1]; Non-obese cats (n = 6), 1 h, read-out: DPP-IV activity %, Mean ± STD) of 13.8 ± 5.8% and an activity at 9 mg ([1]; Non-obese cats (n = 6), 1 h, read-out: DPP-IV activity %, Median) of 11.3%. The activity at 9 mg ([1]; Non-obese cats (n = 6), 1 h, read-out: DPP-IV activity %, Min) was 8.4%, the activity at 9 mg ([1]; Non-obese cats (n = 6), 6 h, read-out: DPP-IV activity %, Max) was 25% and the activity at 9 mg ([1]; Non-obese cats (n = 6), 6 h, read-out: DPP-IV activity %, Mean ± STD) was 14.4 ± 5.7%. It also gave an activity at 9 mg ([1]; Non-obese cats (n = 6), 6 h, read-out: DPP-IV activity %, Median) of 11.4%, an activity at 9 mg ([1]; Non-obese cats (n = 6), 6 h, read-out: DPP-IV activity %, Min) of 9.5% and an activity at 9 mg ([1]; Non-obese cats (n = 6), 24 h, read-out: DPP-IV activity %, Max) of 45.1%. The activity at 9 mg ([1]; Non-obese cats (n = 6), 24 h, read-out: DPP-IV activity %, Mean ± STD) was 20.1 ± 12%, the activity at 9 mg ([1]; Non-obese cats (n = 6), 24 h, read-out: DPP-IV activity %, Median) was 15.3% and the activity at 9 mg ([1]; Non-obese cats (n = 6), 24 h, read-out: DPP-IV activity %, Min) was 8.6%. For the same compound, the activity at 9 mg ([1]; Non-obese cats (n = 6), 72 h, read-out: DPP-IV activity %, Max) was 27.9%, the activity at 9 mg ([1]; Non-obese cats (n = 6), 72 h, read-out: DPP-IV activity %, Mean ± STD) was 18.2 ± 6% and the activity at 9 mg ([1]; Non-obese cats (n = 6), 72 h, read-out: DPP-IV activity %, Median) was 18.9%. The activity at 9 mg ([1]; Non-obese cats (n = 6), 72 h, read-out: DPP-IV activity %, Min) was 8.5%, the activity at 9 mg ([1]; Non-obese cats (n = 6), 168 h, read-out: DPP-IV activity %, Max) was 23.5% and the activity at 9 mg ([1]; Non-obese cats (n = 6), 168 h, read-out: DPP-IV activity %, Mean ± STD) was 17.4 ± 4.7%. The activity at 9 mg ([1]; Non-obese cats (n = 6), 168 h, read-out: DPP-IV activity %, Median) was 18.2%, the activity at 9 mg ([1]; Non-obese cats (n = 6), 168 h, read-out: DPP-IV activity %, Min) was 10.6% and the activity at 9 mg ([1]; Obese cats (n = 8), 1 h, read-out: DPP-IV activity %, Max) was 17.5%. The activity at 9 mg ([1]; Obese cats (n = 8), 1 h, read-out: DPP-IV activity %, Mean ± STD) was 12.1 ± 4%, the activity at 9 mg ([1]; Obese cats (n = 8), 1 h, read-out: DPP-IV activity %, Median) was 11.1% and the activity at 9 mg ([1]; Obese cats (n = 8), 1 h, read-out: DPP-IV activity %, Min) was 7.5%. For the same compound, the activity at 9 mg ([1]; Obese cats (n = 8), 6 h, read-out: DPP-IV activity %, Max) was 20%, the activity at 9 mg ([1]; Obese cats (n = 8), 6 h, read-out: DPP-IV activity %, Mean ± STD) was 11.9 ± 3.9% and the activity at 9 mg ([1]; Obese cats (n = 8), 6 h, read-out: DPP-IV activity %, Median) was 10.5%. For the same compound, the activity at 9 mg ([1]; Obese cats (n = 8), 6 h, read-out: DPP-IV activity %, Min) was 7.4%, the activity at 9 mg ([1]; Obese cats (n = 8), 24 h, read-out: DPP-IV activity %, Max) was 26.5% and the activity at 9 mg ([1]; Obese cats (n = 8), 24 h, read-out: DPP-IV activity %, Mean ± STD) was 17 ± 5.2%. It also gave an activity at 9 mg ([1]; Obese cats (n = 8), 24 h, read-out: DPP-IV activity %, Median) of 15.4%, an activity at 9 mg ([1]; Obese cats (n = 8), 24 h, read-out: DPP-IV activity %, Min) of 11.4% and an activity at 9 mg ([1]; Obese cats (n = 8), 72 h, read-out: DPP-IV activity %, Max) of 23.9%. The activity at 9 mg ([1]; Obese cats (n = 8), 72 h, read-out: DPP-IV activity %, Mean ± STD) was 18.4 ± 4.4%, the activity at 9 mg ([1]; Obese cats (n = 8), 72 h, read-out: DPP-IV activity %, Median) was 18.5% and the activity at 9 mg ([1]; Obese cats (n = 8), 72 h, read-out: DPP-IV activity %, Min) was 12.2%. It also gave an activity at 9 mg ([1]; Obese cats (n = 8), 168 h, read-out: DPP-IV activity %, Max) of 39.8%, an activity at 9 mg ([1]; Obese cats (n = 8), 168 h, read-out: DPP-IV activity %, Mean ± STD) of 19.9 ± 9% and an activity at 9 mg ([1]; Obese cats (n = 8), 168 h, read-out: DPP-IV activity %, Median) of 19.2%. For the same compound, the activity at 9 mg ([1]; Obese cats (n = 8), 168 h, read-out: DPP-IV activity %, Min) was 8.6%, the “reduction of glucose AUC in OGTT” value [2] was 39% and the IC50 [3] was roughly 0.8 nM. For the same compound, the adverse events [4] was “No adverse events specifically attributable to the test article were noted” and the “inhibitory effect on trypsin” value [5] was “did not exert any inhibitory effect”.
